In one series the test system is amidohydrolase. The experiment in a line: Enzyme characterization with heat-treated cell-free extract. Type of series: biochemical, Klebsiella oxytoca PRS1K17 (DSM 11623). The note with it: for effect of methanol on the amidohydrolase: methanol 5 to 20%, 40 and 60° C., substrate 1% (64 mM), 100 mM CAPS buffer pH 10.0. How it is done:
A heat-treated cell-free extract was employed for characterizing the amidase. Cells of Klebsiella oxytoca PRS1K17 (DSM 11623) (OD650=160) were disrupted by passing through a French press at 19000 psi (1309 bar). Benzonase (1 μl×30 ml extract^−1) was added, and the extract was then centrifuged for 1 hour at 20000×g. The supernatant (approx. 20 mg×ml^−1 protein) was heated for 10 minutes at 70° C. and the precipitated protein was then removed by centrifugation. The supernatant (approx. 2.0 mg×ml^−1) was concentrated to 5.0 mg×ml^−1 protein and then stored at −20° C. The heat treatment removed approx. 90% of undesired protein. Up to a protein concentration of 0.5 mg×ml^−1, the reaction rate was in direct proportion to the protein concentration. A protein concentration of 0.2 mg×ml^−1 was therefore routinely employed in the tests. To determine the pH optimum, the concentration of (R,S)-2,2-HTFMPA (substrate) was 0.5% (32 mM) and the temperature was 40° C. The buffers listed in Table 4 were employed in the test.
The effect of the temperature on the reaction was determined in 100 mM CAPS buffer (pH 10.0) at a substrate concentration of 0.5% (32 mM). The effect of the substrate concentration was determined at 60° C. in 100 mM CAPS buffer (pH 10.0), and the effect of methanol at 40 and 60° C. at a substrate concentration of 1% (64 mM) in 100 mM CAPS buffer (pH 10.0). […] The temperature optimum is 70° C. […] 10.4 Enzyme Immobilization

Series [1] in a line: Activity and stability of enzyme immobilized on Eupergit C. The note with it: 60° C., 4% racemic amide in 100 mM CAPS buffer (pH 10). Type of series: biochemical, Klebsiella oxytoca. How it is done: The heat-treated cell-free extract was immobilized using Eupergit C (Röhm GmbH). To this end, Eupergit C (3.0 g) was added to 15 ml of heat-treated cell-free extract (protein concentration: 51 mg) in 1 M potassium phosphate buffer (pH 8.0). The mixture was incubated for 90 hours at room temperature with gentle stirring. The immobilized enzyme was filtered off and washed 4 times with 20 ml of 100 mM potassium phosphate buffer (pH 8.0). Support-bound enzyme (49 mg) gave 9.5 g of immobilized enzyme (fresh weight), which was stored in 100 mM potassium phosphate buffer (pH 10.0) at 4° C. To test the activity and stability of the immobilized enzyme, a small chromatography column was loaded with 5 g (25 mg of protein). A peristaltic pump (0.135 ml×min^−1) was used to circulate the substrate (100 ml 4% racemic amide in 100 mM CAPS buffer (pH 10)) between column and reservoir. The entire process was carried out in a water bath. At certain intervals, samples were taken for analysis. […] Three biotransformations (each with 4 g of racemic substrate, the first having been carried out at 60° C. and the remaining two at 40° C.) gave a total of 6 g of (S)-amide.

For `C[C@@](O)(C(N)=O)C(F)(F)F` [(R)-2,2-HTFMPA, 3,3,3-trifluoro-2-hydroxy-2-methyl-propionamide], the Michaelis-Menten constant (Km) with amidohydrolase (60° C. in 100 mM CAPS buffer, pH 10) was found to be 32 mM.

Regarding `CO` [methanol], the “effect of methanol on the amidohydrolase” value is given as “inhibitory effect” with amidohydrolase and “inhibit the reaction” in the series with amidohydrolase (listed as Methanol).

B1: amidohydrolase: (R)-stereospecific amidohydrolase from Klebsiella oxytoca PRS1/PRS1K17, SEQ ID No. 2; tested as heat-treated cell-free extract (protein, listed as Klebsiella oxytoca)
chain: MKWLEESIMAKRGVGAGRKPVTHHLTEEMQKEFHYTIGPYSTPVLTIEPGDRIIVDTRDAFEGAINSEQDIPSQLLKMPFLNPQNGPIMVNGAEKGDVLAVYIESMLPRGVDPYGICAMIPHFGGLTGTDLTAMLNDPLPEKVRMIKLDSEKVYWSKRHTLPYKPHIGTLSVSPEIDSINSLTPDNHGGNMDVPDIGPGSITYPLVRAPGGRLFIGDAHACQGDGEICGTAVEFASITTIKVDLIKNWQLSWPRMENAENIMSIGSARPLEDATRIAYRDLIYWLVEDFGFEQWDAYMLLSQCGKVRLGNMVDPKYTVGAMLNKNLLV
B1 came in with a specific activity in series [1] of 114 μg×min^−1×mg protein^−1.

In general, Km refers to the concentration of substrate that gives half-maximal velocity.

The values above are taken from patent US7553652B2, “Process for the preparation of (S)- or (R)-3,3,3-trifluoro-2-hydroxy-2-methylpropionic acid” (Lonza AG, priority 1996, dated 2009).
